For one data set, the target named is MAO-B enzyme (Homo sapiens (Human), UniProt P27338). Description: Measurement of MAO-B inhibitory activity (MAO-Glo Assay).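 Further: luminescence read-out, compound preincubated 10 min with enzyme then reacted 60 min at room temperature, inhibition relative to enzyme reaction without compound, blank lacking enzyme and compound.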 Particulars: read-out: MAO-B IC50 value.
The next data set deals with MAO-A enzyme (Homo sapiens (Human), UniProt P21397). Nature of the data set: Measurement of MAO-A inhibitory activity (MAO-Glo Assay). Type of data set: biochemical.
For the next data set, the target named is human LSD1(172-833) (Homo sapiens (Human), UniProt O60341). Nature of the data set: Measurement of LSD1 inhibitory activity (time-resolved fluorescence, biotin-histone H3 mono methylated K4 peptide). It is filed as biochemical. The protocol:
When the turbidity reached 500 Klett units, the culture temperature was changed to 16° C., IPTG (Isopropyl β-D-1-thiogalactopyranoside) having a final concentration of 0.5 mM was added to induce expression, and the cells were cultured further for 14 hr. The culture medium was centrifuged at 6,000 g for 15 min, and Escherichia coil pellets were recovered.
Using Branson ultrasonic disintegrator, the suspension was disrupted by ultrasonication for 3 min, and centrifuged at 33,000 g for 60 min, and the supernatant was recovered. […] It was concentrated to 10 mL with AmiconUltra (NWCO 30K) (Millipore Japan), and purified with HiLoad 26/60 Superdex 200 pg column (GE Healthcare) equilibrated with Buffer A to give hLSD1 purified product (8.4 mg). The protein concentration of hLSD1 was measured by BCA Protein Assay Kit (Thermo Fisher Scientific K.K.) using bovine serum albumin as the standard.
(5) Measurement of LSD1 Inhibitory Activity
After reaction at room temperature for 5 min, 1 mM 2-PCPA solution was added 5 μL to terminate the reaction. A detection solution ([…] potassium fluoride, 0.1% BSA) containing europium-labeled anti-histone H3 antibody (Wako Pure Chemical Industries, Ltd.) and Streptavidin-XL665 (Cisbio) was further added by 5 μL, and the mixture was left standing for 60 min.

Data set [1] can be described thus: Evaluation of hippocampal distribution in mouse. Type of data set: in vivo. The following applies: male ICR mice, 10 mg/kg oral. The protocol: Evaluation of Hippocampal Distribution in Mouse
(§1) Male ICR mice (hereinafter mice) were acclimated for at least one week in a rearing facility. The mice were raised in a rearing room with controlled temperature and humidity under a 12:12 hour light-dark cycle, and allowed free ingestion of feed and water.
The compounds were suspended in 0.5% methylcellulose/0.02% citric acid/distilled water and orally administered. All compounds were administered to the mice at a dose of 10 mg/kg (body weight).
Blood samples were collected at 0.5 hr, or 1 hr, or 1.5 hr from compound administration, and the hippocampus was isolated simultaneously. The plasma concentration and hippocampus concentration of each test compound were measured by the LC/MS/MS method, the ratio (hippocampus/plasma concentration ratio) was calculated, and distribution into hippocampus was evaluated.

The subject of data set [2] is white blood cell number, red blood cell number, platelet number. Nature of the data set: Evaluation of blood cell number in mouse. Type of data set: in vivo. Particulars: oral, Day 2 after administration. The protocol:
Evaluation of Blood Cell Number in Mouse
as §1
The compounds were suspended in 0.5% methylcellulose/0.02% citric acid/distilled water and orally administered. All compounds were administered to the mice at a dose of 1 mg/kg, 10 mg/kg, 50 mg/kg or 100 mg/kg (body weight). On Day 2 after the administration of the compound, the whole blood was collected.
Using Sysmex XT-1800i (Sysmex Corporation), the white blood cell number, red blood cell number, and platelet number in the collected whole blood per unit volume were measured. The influence of each compound on each blood cell number was determined by comparing the number with the mean of each blood cell number of the mouse without administration of the compound (control group), and the numerical value of each blood cell number of a mouse with the administration of the compound is shown in percentage. percentage (%) of blood cell number of compound administration group as compared to control group=(mean blood cell number of compound administration group mean blood cell number of compound non-administration group)×100

Where a name gives a salt, the structure may show the parent alone. Read-outs that look alike come from different tables or passages of the source.

The source of these data is US9751885B2, “Cyclopropanamine compound and use thereof” (Takeda Pharmaceutical Company Limited, priority 2012, dated 2017).

Sequence of MAO-B enzyme (P27338 whole entry): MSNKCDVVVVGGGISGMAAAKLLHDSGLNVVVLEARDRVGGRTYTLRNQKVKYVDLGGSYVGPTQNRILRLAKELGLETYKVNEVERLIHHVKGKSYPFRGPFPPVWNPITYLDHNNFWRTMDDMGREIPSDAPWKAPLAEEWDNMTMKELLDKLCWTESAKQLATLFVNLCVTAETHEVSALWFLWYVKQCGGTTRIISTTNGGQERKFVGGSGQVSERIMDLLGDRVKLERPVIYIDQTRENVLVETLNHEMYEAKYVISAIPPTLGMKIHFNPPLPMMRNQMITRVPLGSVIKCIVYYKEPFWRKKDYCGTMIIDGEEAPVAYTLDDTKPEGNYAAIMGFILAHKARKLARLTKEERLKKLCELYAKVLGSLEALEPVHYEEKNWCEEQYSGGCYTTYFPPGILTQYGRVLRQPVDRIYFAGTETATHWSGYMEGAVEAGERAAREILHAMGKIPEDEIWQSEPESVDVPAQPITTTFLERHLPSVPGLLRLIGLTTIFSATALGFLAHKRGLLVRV
Sequence of MAO-A enzyme (P21397 whole entry): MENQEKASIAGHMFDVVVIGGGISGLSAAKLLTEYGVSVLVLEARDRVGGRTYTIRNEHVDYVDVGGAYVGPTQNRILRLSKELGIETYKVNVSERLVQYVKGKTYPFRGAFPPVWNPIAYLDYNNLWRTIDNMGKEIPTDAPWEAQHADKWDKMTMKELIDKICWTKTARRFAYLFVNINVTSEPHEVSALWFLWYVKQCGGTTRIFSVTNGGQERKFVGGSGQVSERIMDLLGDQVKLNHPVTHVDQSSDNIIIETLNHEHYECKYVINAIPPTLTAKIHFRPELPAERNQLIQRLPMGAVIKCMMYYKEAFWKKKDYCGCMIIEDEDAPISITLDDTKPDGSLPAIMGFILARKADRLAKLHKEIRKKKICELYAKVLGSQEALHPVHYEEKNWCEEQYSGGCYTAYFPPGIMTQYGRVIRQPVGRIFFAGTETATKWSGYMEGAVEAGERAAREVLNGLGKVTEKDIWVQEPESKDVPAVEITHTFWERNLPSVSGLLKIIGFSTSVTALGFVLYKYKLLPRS
Experimental for MAO-B enzyme: The MAO-B inhibitory activity evaluation described below followed the protocol of MAO-Glo (registered trademark) Assay of Promega KK.
A test compound dissolved in 4% DMSO was added by 12.5 μL to 25 μL reaction solution (100 mM HEPES (pH 7.5), 5% glycerol, 10% DMSO) containing 400 ng of MAO-B enzyme (Sigma-Aldrich Co. LLC.), and the mixture was reacted at room temperature for 10 min. […] After reaction at room temperature for 60 min, Luciferine detection reagent (Promega KK) (50 μL) was added to terminate the reaction. After reaction at room temperature for 20 min with stirring, the luminescence was measured by Envision (PerkinElmer). The MAO-B inhibitory rate (%) of the test compound was calculated by the following formula. inhibitory rate(%)=(1−(test compound count−blank)÷(control−blank))×100
The count of the MAO-B enzyme reaction mixture under compound non-addition conditions is indicated as control, and the count under compound non-addition and MAO-B enzyme non-addition conditions is indicated as blank.

Usually IC50 stands for the concentration that inhibits the measured activity by half. Take `O=C(Nc1ccc2[nH]c(=O)sc2c1)c1cccc([C@@H]2C[C@H]2NCC2CC2)c1` (relative stereo) [Example 147, 3-(trans-2-((cyclopropylmethyl)amino)cyclopropyl)-N-(2-oxo-2,3-dihydro-1,3-benzothiazol-6-yl)benzamide trifluoroacetate]: the IC50 was over 10 µM on MAO-B enzyme, over 10 µM against MAO-A enzyme and under 0.1 µM against human LSD1(172-833).
Take `N#Cc1ccc(CN[C@@H]2C[C@H]2c2ccc(C(=O)NCc3ccccc3)cc2)cc1` (relative stereo) [Example 36, N-benzyl-4-(trans-2-((4-cyanobenzyl)amino)cyclopropyl)benzamide trifluoroacetate]: the IC50 at MAO-B enzyme was over 10 µM; against MAO-A enzyme, 4.3 µM; against human LSD1(172-833), under 0.1 µM.
Take `O=C(Nc1cccc(F)c1)c1cccc([C@@H]2C[C@H]2NCC2CC2)c1` (relative stereo) [Example 122, 3-(trans-2-((cyclopropylmethyl)amino)cyclopropyl)-N-(3-fluorophenyl) benzamide trifluoroacetate]: the IC50 at MAO-B enzyme is over 10 µM; against MAO-A enzyme, over 10 µM; on human LSD1(172-833) it was under 0.1 µM.
On to `O=C(Nc1ccc(Cc2ccccc2)cc1)c1cccc([C@@H]2C[C@H]2NCC2CC2)c1` (relative stereo) [Example 129, N-(4-benzylphenyl)-3-(trans-2-((cyclopropylmethyl)amino)cyclopropyl)benzamide trifluoroacetate], for which the IC50 is over 10 µM at MAO-B enzyme, over 10 µM against MAO-A enzyme and under 0.1 µM against human LSD1(172-833).
For `CN(Cc1ccccc1)C(=O)c1ccc([C@@H]2C[C@H]2NCC2CC2)cc1` (relative stereo) [Example 10, N-benzyl-4-(trans-2-((cyclopropylmethyl)amino)cyclopropyl)-N-methylbenzamide hydrochloride], the IC50 on MAO-B enzyme was over 10 µM; at MAO-A enzyme, 7 µM; against human LSD1(172-833), under 0.1 µM.
Taken in the same sequence, the figures for `O=C(c1ccc([C@@H]2C[C@H]2NCC2CC2)cc1)N1Cc2cccnc2C1` (relative stereo) [Example 20, (4-(trans-2-((cyclopropylmethyl)amino)cyclopropyl)phenyl)(5,7-dihydro-6H-pyrrolo[3,4-b]pyridin-6-yl)methanone bis(trifluoroacetate)] were over 10 µM, over 10 µM and under 0.1 µM.
For the compound `O=C(Nc1ccc2nccnc2c1)c1cccc([C@@H]2C[C@H]2NCC2CC2)c1` (relative stereo) [Example 143, 3-(trans-2-((cyclopropylmethyl)amino)cyclopropyl)-N-(quinoxalin-6-yl)benzamide bis(trifluoroacetate)], the IC50 is over 10 µM at MAO-B enzyme, 2.1 µM against MAO-A enzyme and under 0.1 µM against human LSD1(172-833).
On the same counts, the results for `O=C(Nc1ccccc1)c1ccc([C@@H]2C[C@H]2NCC2CC2)cc1` (relative stereo) [Example 8, 4-(trans-2-((cyclopropylmethyl)amino)cyclopropyl)-N-phenylbenzamide hydrochloride] are 4.6 µM, 8.3 µM and under 0.1 µM.
Taken in the same sequence, the figures for `CN1CCN(c2ccc(NC(=O)c3ccc([C@@H]4C[C@H]4NCC4CC4)cc3)cc2)CC1` (relative stereo) [Example 23, 4-(trans-2-((cyclopropylmethyl)amino)cyclopropyl)-N-(4-(4-methylpiperazin-1-yl)phenyl)benzamide tris(trifluoroacetate)] were over 10 µM, over 10 µM and under 0.1 µM.
`N[C@@H]1C[C@H]1c1ccc(C(=O)NC2CCCCC2)cc1` (relative stereo) [Example 6, 4-(trans-2-aminocyclopropyl)-N-cyclohexylbenzamide hydrochloride]: the IC50 is 4.2 µM at MAO-B enzyme, 0.32 µM against MAO-A enzyme and under 0.1 µM at human LSD1(172-833).
Turning to `O=C(NC1CCCC1)c1cccc([C@@H]2C[C@H]2NC2CCN(C3CC3)CC2)c1` (relative stereo) [Example 199, N-cyclopentyl-3-(trans-2-((1-cyclopropylpiperidin-4-yl)amino)cyclopropyl)benzamide dihydrochloride], the IC50 was over 10 µM on MAO-B enzyme, over 10 µM against MAO-A enzyme and under 0.1 µM on human LSD1(172-833).
For `CN(C(=O)c1ccc([C@@H]2C[C@H]2N)cc1)c1ccccc1` (relative stereo) [Example 3, 4-(trans-2-aminocyclopropyl)-N-methyl-N-phenylbenzamide hydrochloride], the IC50 is over 10 µM at MAO-B enzyme, 0.25 µM at MAO-A enzyme and under 0.1 µM on human LSD1(172-833).
`COc1ccc(F)c(CN[C@@H]2C[C@H]2c2ccc(C(=O)NCc3ccccc3)cc2)c1` (relative stereo) [Example 40, N-benzyl-4-(trans-2-((2-fluoro-5-methoxybenzyl)amino)cyclopropyl)benzamide trifluoroacetate]: the IC50 at MAO-B enzyme was over 10 µM; against MAO-A enzyme it was over 10 µM; against human LSD1(172-833) it was under 0.1 µM.
`N#Cc1cccc(CNC(=O)c2ccc([C@@H]3C[C@H]3NCC3CC3)cc2)c1` (relative stereo) [Example 25, N-(3-cyanobenzyl)-4-(trans-2-((cyclopropylmethyl)amino)cyclopropyl)benzamide trifluoroacetate]: the concentration for half-maximal inhibition (IC50) is over 10 µM on MAO-B enzyme, over 10 µM on MAO-A enzyme and under 0.1 µM against human LSD1(172-833).
`Cc1nnc(NC(=O)c2cc([C@@H]3C[C@H]3NC3CCC3)ccc2F)s1` (relative stereo) [Example 183, 5-(trans-2-(cyclobutylamino)cyclopropyl)-2-fluoro-N-(5-methyl-1,3,4-thiadiazol-2-yl)benzamide dihydrochloride]: the concentration at 1.5 h in data set [1] (hippocampus, 1.5 hr after administration, read-out: hippocampus concentration (mean)) was 884 ng/g. The Kp at 1.5 h in data set [1] (hippocampus/plasma, 1.5 hr after administration, read-out: hippocampus/plasma concentration ratio (mean)) is 1.35. Moreover, the concentration at 1.5 h in data set [1] (plasma, 1.5 hr after administration, read-out: plasma concentration (mean)) was found to be 651 ng/mL. Besides, in data set [2] (10 mg/kg), the “platelet number, percentage of compound administration group compared to control group, mean” value (“platelet number, percentage” for short) was 96.4%; the “red blood cell number, percentage of compound administration group compared to control group, mean” value (“red blood cell number, percentage” below) came to 98.5%; the “white blood cell number, percentage of compound administration group compared to control group, mean” value (“white blood cell number, percentage” for short) is reported as 88.1%. Also, in data set [2] (100 mg/kg), the “platelet number, percentage” value worked out at 86.6%; the “red blood cell number, percentage” value worked out at 97.5%; the “white blood cell number, percentage” value is on record as 114.9%.
For `O=C(NC1CCOCC1)c1cc([C@@H]2C[C@H]2NCC2CC2)ccc1F` (relative stereo) [Example 111, 5-(trans-2-((cyclopropylmethyl)amino)cyclopropyl)-2-fluoro-N-(tetrahydro-2H-pyran-4-yl)benzamide hydrochloride], the concentration at 0.5 h in data set [1] (hippocampus, 0.5 hr after administration, read-out: hippocampus concentration (mean)) was 1300 ng/g. In data set [1] (hippocampus/plasma, 0.5 hr after administration, read-out: hippocampus/plasma concentration ratio (mean)), the Kp at 0.5 h amounted to 1.59. In data set [1] (plasma, 0.5 hr after administration, read-out: plasma concentration (mean)), the concentration at 0.5 h stood at 823 ng/mL. In data set [2] (10 mg/kg), the “platelet number, percentage” value came out at 101.2%; the “red blood cell number, percentage” value is on record as 98.7%; the “white blood cell number, percentage” value was found to be 136.9%. In data set [2] (100 mg/kg), the “platelet number, percentage” value is 98.4%; the “red blood cell number, percentage” value amounted to 99.1%; the “white blood cell number, percentage” value came out at 97.9%.
